According to patent US8822464B2, “N-aryl-piperazine derivatives and their use as positive allosteric modulators of mGluR5 receptors” (Boehringer Ingelheim International GmbH, priority 2011, dated 2014):

Target: T1, human recombinant mGluR5 (Homo sapiens, UniProt P41594)
T1 construct: expressed in transfected cells; host or cells: HEK 293 cell line; cultured with tetracycline, hygromycin and geneticin; tetracycline withdrawn 3-7 days before the assay
Experiment: positive modulation of mGluR5, calcium based FLIPR assay in HEK 293 cells
Conditions: HEK 293 cell line expressing human recombinant mGluR5; peak height of Ca release fluorescence signal after glutamate at approximately 5% basal stimulation; nonlinear regression
How it was run: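 HEK 293 cells expressing human mGluR5, tetracycline-free 3-7 days, Calcium-4 dye-loaded in Ringer solution pH 7.4; 1% DMSO final. Compound added 5 min before glutamate at ~5% of maximal effect; peak Ca2+ fluorescence normalized to basal glutamate (100%) and 10 μM CDPPB (200%); EC50 by nonlinear regression.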

T1 sequence (P41594 21-1212): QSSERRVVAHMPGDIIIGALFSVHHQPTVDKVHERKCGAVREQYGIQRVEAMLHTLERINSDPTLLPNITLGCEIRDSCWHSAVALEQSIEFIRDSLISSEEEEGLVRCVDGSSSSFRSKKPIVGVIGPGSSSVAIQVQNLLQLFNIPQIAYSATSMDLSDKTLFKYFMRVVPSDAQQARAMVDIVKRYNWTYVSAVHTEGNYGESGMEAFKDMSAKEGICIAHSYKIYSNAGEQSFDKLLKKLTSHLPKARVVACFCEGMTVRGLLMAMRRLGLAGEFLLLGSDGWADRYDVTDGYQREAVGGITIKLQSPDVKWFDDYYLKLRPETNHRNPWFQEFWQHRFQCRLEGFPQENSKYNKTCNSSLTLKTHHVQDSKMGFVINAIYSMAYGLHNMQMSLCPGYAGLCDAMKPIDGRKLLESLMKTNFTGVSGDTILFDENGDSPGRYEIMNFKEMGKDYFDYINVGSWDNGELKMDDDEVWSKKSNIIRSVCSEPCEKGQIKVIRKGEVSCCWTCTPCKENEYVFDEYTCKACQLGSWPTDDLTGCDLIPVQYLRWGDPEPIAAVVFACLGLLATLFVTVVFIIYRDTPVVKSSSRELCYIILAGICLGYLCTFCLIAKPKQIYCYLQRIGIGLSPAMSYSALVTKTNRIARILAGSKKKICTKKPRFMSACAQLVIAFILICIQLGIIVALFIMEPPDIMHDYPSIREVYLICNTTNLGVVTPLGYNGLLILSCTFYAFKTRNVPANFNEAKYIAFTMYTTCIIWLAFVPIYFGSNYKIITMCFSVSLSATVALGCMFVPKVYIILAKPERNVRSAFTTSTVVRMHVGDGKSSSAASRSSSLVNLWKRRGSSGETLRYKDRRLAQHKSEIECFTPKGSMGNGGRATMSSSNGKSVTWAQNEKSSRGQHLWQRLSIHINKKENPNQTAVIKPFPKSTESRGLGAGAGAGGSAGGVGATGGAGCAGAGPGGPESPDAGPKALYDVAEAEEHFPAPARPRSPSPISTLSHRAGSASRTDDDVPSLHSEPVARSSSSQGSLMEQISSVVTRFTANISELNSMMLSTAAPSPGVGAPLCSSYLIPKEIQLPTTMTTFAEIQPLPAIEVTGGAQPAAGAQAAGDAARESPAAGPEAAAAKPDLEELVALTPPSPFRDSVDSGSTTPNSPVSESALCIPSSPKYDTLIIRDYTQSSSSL

EC50 [nM]	SMILES
441	CCCc1cc(-c2ccc(F)c(C)n2)nn1CC(=O)N1CCN(c2ccccn2)CC1 [Example 7.01.186]
360	CCCc1cc(-c2ccc(F)c(C)n2)nn1CC(=O)N1CCN(c2cc(OC)ncn2)CC1 [Example 7.01.187]
27	Cc1ccc(-c2cc(-c3ccccc3)n(CC(=O)N3CCN(c4ncccn4)CC3)n2)cc1F [Example 7.01.188]
48	Cc1ccc(-c2cc(-c3ccccc3)n(CC(=O)N3CCN(c4ccccn4)CC3)n2)cc1F [Example 7.01.189]
47	COc1cc(N2CCN(C(=O)Cn3nc(-c4ccc(C)c(F)c4)cc3-c3ccccc3)CC2)ncn1 [Example 7.01.190]
7	O=C(Cn1nc(-c2ccc(C(F)F)cc2)cc1-c1ccccc1)N1CCN(c2ncccn2)CC1 [Example 7.01.191]
15	COc1cc(N2CCN(C(=O)Cn3nc(-c4ccc(C(F)F)cc4)cc3-c3ccccc3)CC2)ncn1 [Example 7.01.192]
35	O=C(Cn1nc(-c2ccccc2)cc1-c1ccccc1)N1CCN(c2ncccn2)CC1 [Example 7.02.01, 2-(3,5-diphenyl-pyrazol-1-yl)-1-(4-(2-pyrimidinyl)-1-piperazinyl)-ethanon]
428	O=C(Cn1nc(-c2ccccc2)cc1-c1ccccc1)N1CCN(c2cccnc2)CC1 [Example 7.02.02]
29	O=C(Cn1nc(-c2ccccc2)cc1-c1ccccc1)N1CCN(c2ccccn2)CC1 [Example 7.02.03]
393	O=C(Cn1nc(-c2ccccc2)cc1-c1ccccc1)N1CCN(c2ccccc2)CC1 [Example 7.02.04]
85	O=C(Cn1nc(-c2ccccc2)cc1-c1ccccc1)N1CCN(c2cnccn2)CC1 [Example 7.02.05]
581	O=C(Cn1nc(-c2ccccc2)cc1-c1ccccc1)N1CCN(c2cccnc2)CC1 [Example 7.02.06]
853	O=C(Cn1nc(-c2ccccc2)cc1-c1ccccc1)N1CCN(c2cc3ccccc3cn2)CC1 [Example 7.02.07]
934	N#Cc1ccc(N2CCN(C(=O)Cn3nc(-c4ccccc4)cc3-c3ccccc3)CC2)nc1 [Example 7.02.08]
298	N#Cc1cccnc1N1CCN(C(=O)Cn2nc(-c3ccccc3)cc2-c2ccccc2)CC1 [Example 7.02.09]
91	O=C(Cn1nc(-c2ccccc2)cc1-c1ccccc1)N1CCN(c2ncc(Br)cn2)CC1 [Example 7.02.11]
1260	O=C(Cn1nc(-c2ccccc2)cc1-c1ccccc1)N1CCN(c2nccc(C(F)(F)F)n2)CC1 [Example 7.02.12]
696	O=C(Cn1nc(-c2ccccc2)cc1-c1ccccc1)N1CCN(c2cc(C(F)(F)F)ccn2)CC1 [Example 7.02.13]
129	O=C(Cn1nc(-c2ccccc2)cc1-c1ccccc1)N1CCN(c2ncncn2)CC1 [Example 7.02.14]

EC50 [nM]	SMILES
153	COCc1cc(-c2ccc(F)c(C)c2)nn1CC(=O)N1CCN(c2ncccn2)CC1 [Example 7.02.15]
237	COCc1cc(-c2ccc(F)c(C)c2)nn1CC(=O)N1CCN(c2ccccn2)CC1 [Example 7.02.16]
182	COCc1cc(-c2ccc(F)c(C)c2)nn1CC(=O)N1CCN(c2cc(OC)ccn2)CC1 [Example 7.02.17]
211	COCc1cc(-c2ccc(F)c(C)c2)nn1CC(=O)N1CCN(c2cc(OC)ncn2)CC1 [Example 7.02.18]
1200	COCc1cc(-c2ccc(F)c(C)c2)nn1CC(=O)N1CCN(c2cccnn2)CC1 [Example 7.02.19]
183	COCc1cc(-c2ccc(F)c(C)c2)nn1CC(=O)N1CCN(c2ncnc3[nH]cnc23)CC1 [Example 7.02.20]
77	Cc1cc(-c2cc(C)n(CC(=O)N3CCN(c4ccccn4)CC3)n2)ccc1F [Example 7.02.21]
85	COc1ccnc(N2CCN(C(=O)Cn3nc(-c4ccc(F)c(C)c4)cc3C)CC2)c1 [Example 7.02.22]
60	COc1cc(N2CCN(C(=O)Cn3nc(-c4ccc(F)c(C)c4)cc3C)CC2)ncn1 [Example 7.02.23]
340	Cc1cc(-c2cc(C)n(CC(=O)N3CCN(c4cccnn4)CC3)n2)ccc1F [Example 7.02.24]
92	Cc1cc(-c2cc(C)n(CC(=O)N3CCN(c4ncnc5[nH]cnc45)CC3)n2)ccc1F [Example 7.02.25]
36	COc1cnc(N2CCN(C(=O)Cn3nc(-c4ccc(F)c(C)c4)cc3C)CC2)nc1 [Example 7.02.26]
243	Cc1cc(-c2cc(-c3ccccc3)n(CC(=O)N3CCN(c4ccccc4)CC3)n2)ccc1F [Example 7.02.27]
31	COc1ccc(-c2cc(-c3ccc(OC)cc3)n(CC(=O)N3CCN(c4ncccn4)CC3)n2)cc1 [Example 7.03.01]
696	O=C(Cn1nc(-c2ccccc2F)cc1-c1ccccc1F)N1CCN(c2ncccn2)CC1 [Example 7.04.01]
81	O=C(Cn1nc(C2CCCCC2)cc1-c1ccc(F)cc1)N1CCN(c2ncccn2)CC1 [Example 7.04.02]
392	COC(=O)c1ccc(-c2cc(-c3ccccc3)n(CC(=O)N3CCN(c4ncccn4)CC3)n2)cc1 [Example 7.04.03]
40	Cc1cc(-c2cc(-c3ccccc3)n(CC(=O)N3CCN(c4cc(OCCN5CCOCC5)ncn4)CC3)n2)ccc1F [Example 7.05.01, 2-[3-(4-fluoro-3-methyl-phenyl)-5-phenyl-pyrazol-1-yl]-1-{4-[6-(2-morpholin-4-yl-ethoxy)-pyrimidin-4-yl]-piperazin-1-yl}-ethanone]
38	Cc1cc(-c2cc(-c3ccccc3)n(CC(=O)N3CCN(c4cc(OCC(C)O)ncn4)CC3)n2)ccc1F (stereo not drawn) [Example 7.05.02]
